Experimental findings from patent publication US20240067655A1 (NEURON23, INC., priority 2020, published 2024) are described below.

The target of this test is T1, wt human LRRK2, catalytic site (Homo sapiens, UniProt Q5S007).
T1 construct: wt human LRRK2, catalytic site; purchased ThermoFisher/USA
T1 sequence (Q5S007 1879-2138 limits assumed): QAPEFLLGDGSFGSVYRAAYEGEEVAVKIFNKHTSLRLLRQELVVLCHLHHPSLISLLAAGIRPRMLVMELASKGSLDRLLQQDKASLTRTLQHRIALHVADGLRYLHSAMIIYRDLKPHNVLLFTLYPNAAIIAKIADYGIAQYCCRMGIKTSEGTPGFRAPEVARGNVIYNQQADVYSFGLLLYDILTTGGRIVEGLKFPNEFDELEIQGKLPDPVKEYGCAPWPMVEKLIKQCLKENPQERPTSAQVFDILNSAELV
The test is described as follows: TR-FRET LanthaScreen Tb Kinase Activity Assay (Example 71). To be noted: compounds of Table 4, 38 uM ATP, method names only wt human LRRK2, read-out: IC50, Inhibitory Activity Toward LRRK2 (Wt) and LRRK2 (G2019). The test is classed as biochemical. As to the method:
The compounds in Table 4 were tested for their inhibitory effect on LRRK2 kinases according to the following procedures.
The basic protocol for TR-FRET LanthaScreen Tb Kinase Activity Assay inhibitor studies were performed as follows. LanthaScreen Kinase Activity Assays (ThermoFisher/USA) to evaluate inhibitors were performed by addition of 100 nl of test compound in corresponding DMSO dilutions/5 μl of kinase/fluorescein-ERM(LRRKtide) peptide mixture, 5 μl of ATP into 384 well small volume plates. After incubation for 120 minutes at room temperature, the detection reagents containing Tb-anti-pLRRKtide antibody were added to monitor phosphrylation level of peptide. Then, after 60 min minutes incubation at room temperature plates were read in Envision. Data analysis of emission ratios was according to LanthaScreen Tb Kinase Activity Assay protocol.
Kinase and assay components were adjusted to final concentrations according to the kit protocol. For LRRK2: 2 nM wt human LRRK2, catalytic site, catalytic site (ThermoFisher/USA), 400 nM peptide, 38 uM ATP in 1× Kinase Buffer A.
Basic protocol for TR-FRET LanthaScreen Tb Kinase Activity Assay inhibitor studies involved two steps:
Enzymatic step: Addition of 100 nl of test compound in corresponding DMSO dilutions, 5 μl of kinase/substrate mixture, 5 μl of ATP into 384 well small volume plates. Incubation for 120 minutes at room temperature.
Detection step: Addition of 10 μl EDTA & antibody, read plate after 60 minutes. Data analysis of emission ratios according to KinEASE assay protocol.
(In TR-FRET formats the signal depends on donor and acceptor labels being close together.)
For orientation: IC50 means the concentration that inhibits the measured activity by half. Consider `Cc1n[nH]c2c1N=C(c1c(F)cccc1F)N1CCCn3ncc-2c31` [Compound 370, 9-(2,6-difluorophenyl)-1-methyl-3,6,7,8-tetrahydro-2,3,5,5a,8a,10-hexaazabenzo[cd]cyclopenta[h]azulene], for which the IC50 was under 10 nM.

Take `Fc1cccc(F)c1C1=Nc2c(Cl)n[nH]c2-c2cnn3c2N1CCC3` [Compound 371, 5-chloro-8-(2,6-difluorophenyl)-3,4,7,9,13,14-hexazatetracyclo[7.6.1.02,6.013,16]hexadeca-1(16),2(6),4,7,14-pentaene]: the IC50 was under 10 nM.

Turning to `Cc1n[nH]c2c1N=C(c1c(F)cccc1F)N1CCn3ncc-2c31` [Compound 372, 8-(2,6-difluorophenyl)-5-methyl-3,4,7,9,12,13-hexazatetrahydro[7.5.1.02,6.012,15]pentadeca-1(15),2,5,7,13-pentaene], the IC50 was under 10 nM.

As to `Fc1cccc(F)c1C1=Nc2cn[nH]c2-c2cnn3c2N1CC3` [Compound 373, 3-(2,6-difluorophenyl)-2,7-dihydro-1H-2a,4,6,7,9,9a-hexaazadicyclopenta[cd,f]azulene], the IC50 was under 10 nM.

In the case of `Cc1nn2c3c1CCCN3C(c1c(F)cccc1F)=Nc1cn[nH]c1-2` [Compound 374, 8-(2,6-difluorophenyl)-14-methyl-1,3,4,7,9,15-hexazatetracyclo[7.6.1.02,6.013,16]hexadeca-2(6),4,7,13(16),14-pentaene], the half-maximal inhibitory concentration (IC50) is 100 to 1000 nM.

For `Fc1cccc(F)c1C1=Nc2c(Cl)n[nH]c2-c2cnn3c2N1CC3` [Compound 375, 5-chloro-3-(2,6-difluorophenyl)-2,7-dihydro-1H-2a,4,6,7,9,9a-hexaazadicyclopenta[cd,f]azulene], the 50% inhibitory concentration (IC50) is under 10 nM.

Consider `Fc1cncc(F)c1C1=Nc2cn[nH]c2-c2cnn3c2N1CCC3` [Compound 376, 8-(3,5-difluoro-4-pyridyl)-3,4,7,9,13,14-hexazatetracyclo[7.6.1.02,6.013,16]hexadeca-1(16),2(6),4,7,14-pentaene], for which the concentration for half-maximal inhibition (IC50) fell in the range of 10 to 100 nM.

`Fc1cccc(F)c1C1=Nc2cn[nH]c2-c2cnn3c2N1CC1(CC1)C3` [Compound 377, 9-(2,6-difluorophenyl)-6,8-dihydro-3H-spiro[2,3,5,5a,8a,10-hexaazabenzo[cd]cyclopenta[h]azulene-7,1′-cyclopropane]]: the IC50 fell in the range of 100 to 1000 nM.

Consider `Cc1cccc(C)c1C1=Nc2cn[nH]c2-c2cnn3c2N1CCC3` [Compound 379, 8-(2,6-dimethylphenyl)-3,4,7,9,13,14-hexazatetracyclo[7.6.1.02,6.013,16]hexadeca-1(16),2(6),4,7,14-pentaene], for which the IC50 was 100 to 1000 nM.

Take `Fc1cccc(C(F)(F)F)c1C1=Nc2cn[nH]c2-c2cnn3c2N1CCC3` [Compound 380, 8-[2-fluoro-6-(trifluoromethyl)phenyl]-3,4,7,9,13,14-hexazatetracyclo[7.6.1.02,6.013,16]hexadeca-1(16),2(6),4,7,14-pentaene]: the IC50 is 10 to 100 nM.

Consider `Fc1cccc(C(F)F)c1C1=Nc2cn[nH]c2-c2cnn3c2N1CCC3` [Compound 381, 8-[2-(difluoromethyl)-6-fluoro-phenyl]-3,4,7,9,13,14-hexazatetracyclo[7.6.1.02,6.013,16]hexadeca-1(16),2(6),4,7,14-pentaene], for which the IC50 lay within 10 to 100 nM.

Consider `Cc1cccc(F)c1C1=Nc2cn[nH]c2-c2cnn3c2N1CC3` [Compound 382, 8-(2-fluoro-6-methyl-phenyl)-3,4,7,9,12,13-hexazatetracyclo[7.5.1.02,6.012,15]pentadeca-1(15),2(6),4,7,13-pentaene], for which the IC50 is under 10 nM.

For the molecule `Fc1cccc(Cl)c1C1=Nc2cn[nH]c2-c2cnn3c2N1CC3` [Compound 383, 8-(2-chloro-6-fluoro-phenyl)-3,4,7,9,12,13-hexazatetracyclo[7.5.1.02,6.012,15]pentadec-1(15),2(6),4,7,13-pentaen], the IC50 was under 10 nM.

For `Fc1cc(OC(F)F)cc(F)c1C1=Nc2cn[nH]c2-c2cc(C(F)(F)F)cc3[nH]cc1c23` [Compound 384, 3-(4-(difluoromethoxy)-2,6-difluorophenyl)-9-(trifluoromethyl)-1,7-dihydropyrazolo[3′,4′:6,7]azepino[3,4,5-cd]indole], the IC50 fell in the range of 10 to 100 nM.

On to `Fc1cc(Cl)cc(F)c1C1=Nc2cn[nH]c2-c2cnn3c2N1CCC3` [Compound 385, 9-(4-chloro-2,6-difluorophenyl)-3,6,7,8-tetrahydro-2,3,5,5a,8a,10-hexaazabenzo[cd]cyclopenta[h]azulene], for which the IC50 is 10 to 100 nM.

For `Fc1cncc(F)c1C1=Nc2c(Cl)n[nH]c2-c2cnn3c2N1CCC3` [Compound 386, 1-chloro-9-(3,5-difluoropyridin-4-yl)-3,6,7,8-tetrahydro-2,3,5,5a,8a,10-hexaazabenzo[cd]cyclopenta[h]azulene], the IC50 is 10 to 100 nM.

With `Fc1cc(F)c(C2=Nc3cn[nH]c3-c3cnn4c3N2CC4)c(F)c1` [Compound 387, 3-(2,4,6-trifluorophenyl)-2,7-dihydro-1H-2a,4,6,7,9,9a-hexaazadicyclopenta[cd,f]azulene], the IC50 is under 10 nM.

On to `Fc1cc(Cl)cc(F)c1C1=Nc2cn[nH]c2-c2cnn3c2N1CC3` [Compound 388, 3-(4-chloro-2,6-difluorophenyl)-2,7-dihydro-1H-2a,4,6,7,9,9a-hexaazadicyclopenta[cd,f]azulene], for which the IC50 lay in the range of 10 to 100 nM.

For `Fc1ccc(Br)c(F)c1C1=Nc2cn[nH]c2-c2cnn3c2N1CC3` [Compound 389, 3-(3-bromo-2,6-difluorophenyl)-2,7-dihydro-1H-2a,4,6,7,9,9a-hexaazadicyclopenta[cd,f]azulene], the IC50 is under 10 nM.

On to `Fc1ccc(Cl)c(F)c1C1=Nc2cn[nH]c2-c2cnn3c2N1CC3` [Compound 390, 3-(3-chloro-2,6-difluorophenyl)-2,7-dihydro-1H-2a,4,6,7,9,9a-hexaazadicyclopenta[cd,f]azulene], for which the IC50 was under 10 nM.

Take `Cc1n[nH]c2c1N=C(c1c(F)ccc(Br)c1F)N1CCn3ncc-2c31` [Compound 391, 3-(3-bromo-2,6-difluorophenyl)-5-methyl-2,7-dihydro-1H-2a,4,6,7,9,9a-hexaazadicyclopenta[cd,f]azulene]: the IC50 was under 10 nM.

On to `Fc1ccc(Br)c(Cl)c1C1=Nc2cn[nH]c2-c2cnn3c2N1CC3` [Compound 392, 3-(3-bromo-2-chloro-6-fluorophenyl)-2,7-dihydro-1H-2a,4,6,7,9,9a-hexaazadicyclopenta[cd,f]azulene], for which the IC50 was under 10 nM.

Regarding `Fc1cccc(Br)c1C1=Nc2cn[nH]c2-c2cnn3c2N1CC3` [Compound 393, 3-(2-bromo-6-fluorophenyl)-2,7-dihydro-1H-2a,4,6,7,9,9a-hexaazadicyclopenta[cd,f]azulene], the IC50 was 10 to 100 nM.

As to `N#Cc1ccc(F)c(C2=Nc3cn[nH]c3-c3cnn4c3N2CC4)c1F` [Compound 394, 3-(2,7-dihydro-1H-2a,4,6,7,9,9a-hexaazadicyclopenta[cd,f]azulen-3-yl)-2,4-difluorobenzonitrile], the IC50 was under 10 nM.

Take `Cc1n[nH]c2c1N=C(c1c(F)cccc1Cl)N1CCn3ncc-2c31` [Compound 395, 3-(2-chloro-6-fluorophenyl)-5-methyl-2,7-dihydro-1H-2a,4,6,7,9,9a-hexaazadicyclopenta[cd,f]azulene]: the concentration for half-maximal inhibition (IC50) is under 10 nM.

Take `Cc1ccc(F)c(C2=Nc3c(C)n[nH]c3-c3cnn4c3N2CCC4)c1F` [Compound 396, 9-(2,6-difluoro-3-methylphenyl)-1-methyl-3,6,7,8-tetrahydro-2,3,5,5a,8a,10-hexaazabenzo[cd]cyclopenta[h]azulene]: the IC50 is under 10 nM.

As to `Cc1n[nH]c2c1N=C(c1c(F)ccc(C#N)c1F)N1CCCn3ncc-2c31` [Compound 397, 2,4-difluoro-3-(1-methyl-3,6,7,8-tetrahydro-2,3,5,5a,8a,10-hexaazabenzo[cd]cyclopenta[h]azulen-9-yl)benzonitrile], the IC50 was under 10 nM.

For `Cc1n[nH]c2c1N=C(c1c(F)cc(OC(F)F)cc1F)N1CCn3ncc-2c31` [Compound 398], the IC50 is under 10 nM.

For `Fc1ccc(C2CC2)c(F)c1C1=Nc2cn[nH]c2-c2cnn3c2N1CC3` [Compound 399, 3-(3-cyclopropyl-2,6-difluorophenyl)-2,7-dihydro-1H-2a,4,6,7,9,9a-hexaazadicyclopenta[cd,f]azulene], the IC50 was under 10 nM.

Consider `Cc1n[nH]c2c1N=C(c1c(F)cccc1F)c1c[nH]c3cc(Cl)cc-2c13` [Compound 400, 9-chloro-3-(2,6-difluorophenyl)-5-methyl-1,7-dihydropyrazolo[3′,4′:6,7]azepino[3,4,5-cd]indole], for which the IC50 was under 10 nM.

As for `Fc1cccc(F)c1C1=Nc2cn[nH]c2-c2cc(C(F)(F)F)cc3[nH]cc1c23` [Compound 401, 3-(2,6-difluorophenyl)-9-(trifluoromethyl)-1,7-dihydropyrazolo[3′,4′:6,7]azepino[3,4,5-cd]indole], the IC50 is under 10 nM.

For the molecule `Fc1cc(Cl)cc(F)c1C1Nc2cn[nH]c2-c2cnn3c2N1CCC3` (centres unmarked) [Compound 402, 9-(4-chloro-2,6-difluorophenyl)-3,6,7,8,9,10-hexahydro-2,3,5,5a,8a,10-hexaazabenzo[cd]cyclopenta[h]azulene], the half-inhibitory concentration (IC50) lay in the range of 100 to 1000 nM.
